Experiment: Solubility in solvents (stated in words)
Assay type: physicochemical
Conditions: statement in words

Row | SMILES | solubility in solvents
1 | COCCN1/C(=C\C=C2/CCCC(/C=C/C3=[N+](CCOC)c4ccccc4C3(C)C)=C2Cl)C(C)(C)c2ccccc21 [compound A] | low
2 | CCN1/C(=C\C=C2/CCCC(/C=C/C3=[N+](CC)c4ccc(OC)cc4C3(C)C)=C2Cl)C(C)(C)c2cc(OC)ccc21.[I-] [compound B] | low
